# In patent publication US5106610A, “Method for determining the diuretic potency of candidate drugs as inhibitors of the antidiuretic hormone-elicited water channel” (Childrens Medical Center Corporation, priority 1989, dated 1992):
# How the values were obtained:
# ADH water channels = assay: Proton permeability (PH+) of F-dextran loaded endocytic vesicles containing ADH water channels, stopped-flow fluorescence after imposed pH gradient; assay type: biochemical, Bufo marinus
# From the text: Endocytic vesicles from the bladder of Dominican toads were ADH stimulated and loaded with fluoroescein bound to dextran (F-dextran) following the procedures of Harris et.al., "Apical Membrane Vesicles of ADH-Stimulated Toad Bladder Are Highly Water Permeable,"Am. J. Physiol. In Press, (1989); Harris, H. W., et.al., "Fluorescent Markers to Study Membrane Retrieval in Antidiuretic Hormone-Treated Toad Urinary Bladder," Am. J. Physiol., 251:C274-C284 (1986). Briefly, the procedures were as follows.
# Dominican toads (Bufo marinus), obtained from National Reagents, Bridgeport, CT, were employed. Urinary bladders of Bufo marinus were prepared and mounted on cannulas as small sacs. After a 20 minute interval of ADH stimulation (50 mU/ml), the apical surfaces of bladders were exposed to solutions containing 50 mg/ml of F-dextran (Av. Mol. Wt. 70,000 Daltons) and […], 30 Mm KCl, and […], pH 8.0, for an interval of 5 minutes followed by termination of ADH stimulation and incubation for an additional 10 minutes. The solution containing the F-dextran was then removed, the bladders rinsed to remove all extracellular F-dextran. The intermediate pellet fraction obtained from centrifugation of the cell was used. F-dextran loaded vesicles were washed repeatedly to remove F-dextran and partially purified by differential centrifugation. In the absence of ADH, no detectable fluorescence was present in this vesicle fraction despite apical membrane exposure to F-dextran.
# Standard cuvette fluorescence measurements were performed using an SLM-Aminco 500C spectrofluorimeter (excitation wavelength 499 nm). Stopped-flow measurements were performed in a High Tech stopped-flow device (50 msec dead time) connected to a Photon Technologies Alphascan Fluorimeter. One syringe contained a concentrated vesicle suspension and antifluoroscein antibody while the other contained buffer with sufficient HCl to change the final extravesicular pH as indicated. Data from 3-5 determination performed on a single day were averages. Results were fitted to single exponentials and .tau. was converted to permeability using the following equation: […]
# where JH + is the flux rate of protons in mole/sec, PH + is the permeability coefficient of protons in cm/sec, ΔC is the concentration gradient for protons across the vesicle membrane at the start of the experiment in mole/cm^3, and A is the surface area of a single F-dextran containing vesicle (7.1×10^-10 cm^2). See Harris, H. W., et.al., "Isolation and Characterization of Specialized Regions of Toad Urinary Bladder Apical Plasma Membrane Involved in the Water Permeability Response to Antidiuretic Hormone," J. Memb. Biol., 96:175-186 (1987). Jh + was calculated by multiplying 1/.tau. by the amount of buffer (in moles) in an individual vesicle (single vesicle volume was 1.41×10^-14 cm^3). .tau. is the mathematical term representing the time for the process to be 2/3 completed. Estimates of vesicle volume and surface area were calculated from dimensions of vesicles loaded with horseradish peroxides (HRP) instead of F-dextran.
# The effect of pCMBS on the rate of pH change in F-dextran loaded vesicles was determined. The materials and procedures of Example 1 were employed, except as noted. […] The results are plotted in FIG. 3. As illustrated, preincubation of vesicles with pCMBS inhibited 54% of oH + in F-dextran loaded vesicles. Control pH + was 3.9±0.5×10^-3 cm/sec (n-5; p<0.005 compared to control; unpaired t test). […]
# toad bladder [1] = conditions: cited from earlier work
# toad bladder [2] = conditions: NEM pretreatment; cited from earlier work
# [3] = system: human erythroycte membrane; conditions: NEM pretreatment; cited from earlier work
smiles,measurement,setting,value
O=C(CCc1ccc(O)cc1)c1c(O)cc(O)cc1O [Phloretin],effect on apical membrane vesicle JH +,ADH water channels; phloretin 30 min prior to assay and present during stopped flow,without effect
same,PH + (proton permeability coefficient) of treated vesicles,"ADH water channels; vesicles exposed to phloretin 30 min prior to assay, stopped flow in continued presence, paired studies",2.6±0.4 ×10^-3 cm/sec
same,effect on ADH-stimulated urea flux in toad bladder,toad bladder [1],inhibits
"O=S(=O)(O)c1cc[c]([Hg][Cl])cc1 [pCMBS, parachloromercuribenzene sulfonate]",inhibition of oH + (proton permeability) in F-dextran loaded vesicles,"ADH water channels; 1 mM pCMBS, one hour preincubation at 4° C., vesicles with 17.6 mM HEPES pH 8.0, extravesicular pH lowered to 6.0",54%
"CCN1C(=O)C=CC1=O [NEM, n-ethylmaleimide]",effect on pH + compared to control (significance),"ADH water channels; NEM 2 mM, 1 h pretreatment on ice",NS compared to control
same,pH + (proton permeability coefficient) after pretreatment,"ADH water channels; NEM 2 mM, pretreated 1 h in HEPES buffer on ice, paired control 5.6±0.2×10^-3",6.2±0.9×10^-3 cm/sec
same,inhibitory effect on water flux across the toad bladder,toad bladder [2],no inhibitory effect
same,inhibitory effect on water flux across human erythrocyte membrane,[3],no inhibitory effect
